{"source": "the NIST ThermoML archive (doi:10.1016/j.fluid.2015.06.034)", "test": "wn = mass fraction of the nth substance listed", "settings": "Liquid, Vibrating tube method, w1 = 0.45", "note": "± gives the expanded uncertainty stated by the source."}
{"smiles": "CN(CCO)CCO", "note": "[N-methyldiethanolamine] + O", "values": [{"measurement": "mass density", "setting": "303.15 K", "value": "1037.2 ± 5", "unit": "kg/m3"}, {"measurement": "mass density", "setting": "323.15 K", "value": "1024.8 ± 5", "unit": "kg/m3"}, {"measurement": "mass density", "setting": "343.15 K", "value": "1011.5 ± 5", "unit": "kg/m3"}, {"measurement": "mass density", "setting": "363.15 K", "value": "996.4 ± 5", "unit": "kg/m3"}]}
